Reference: ChEMBL document CHEMBL3813678, “Synthesis and anticancer activity of novel 4-morpholino-7,8-dihydro-5H-thiopyrano[4,3-d]pyrimidine derivatives bearing chromone moiety” (Bioorg Med Chem, 2016)

What was measured:
A549 = experiment: Cytotoxicity against human A549 cells after 72 hrs by MTT assay; format: functional, cell-based
[1] = Cytotoxicity against human PC3 cells after 72 hrs by MTT assay; format: functional, cell-based, PC-3
MCF7 = experiment: Cytotoxicity against human MCF7 cells after 72 hrs by MTT assay; format: functional, cell-based
HeLa = experiment: Cytotoxicity against human HeLa cells after 72 hrs by MTT assay; format: functional, cell-based
HepG2 = experiment: Cytotoxicity against human HepG2 cells after 72 hrs by MTT assay; format: functional, cell-based
[2] = biological target: T1, Serine/threonine-protein kinase mTOR (Homo sapiens, UniProt P42345); experiment: Inhibition of mTOR (unknown origin) at 10 uM using ULight4E-BP1 peptide as substrate incubated for 1 hr by TR-FRET assay
[3] = biological target: T2, Phosphatidylinositol 4,5-bisphosphate 3-kinase catalytic subunit alpha isoform (Homo sapiens, UniProt P42336); experiment: Inhibition of PI3Kalpha (unknown origin) at 10 uM using PI substrate incubated for 60 mins by kinase-glo luminescence assay
[4] = biological target: T1, Serine/threonine-protein kinase mTOR; experiment: Inhibition of mTOR (unknown origin) using ULight4E-BP1 peptide as substrate incubated for 1 hr by TR-FRET assay
[5] = biological target: T2, Phosphatidylinositol 4,5-bisphosphate 3-kinase catalytic subunit alpha isoform; experiment: Inhibition of PI3Kalpha (unknown origin) using PI substrate incubated for 60 mins by kinase-glo luminescence assay
[6] = Homo sapiens, A549, 72 h, read-out: IC50
[7] = Homo sapiens, PC-3, 72 h, read-out: IC50
[8] = Homo sapiens, MCF7, 72 h, read-out: IC50
[9] = Homo sapiens, HeLa, 72 h, read-out: IC50
[10] = Homo sapiens, HepG2, 72 h, read-out: IC50

T2 sequence (P42336 whole entry, canonical isoform): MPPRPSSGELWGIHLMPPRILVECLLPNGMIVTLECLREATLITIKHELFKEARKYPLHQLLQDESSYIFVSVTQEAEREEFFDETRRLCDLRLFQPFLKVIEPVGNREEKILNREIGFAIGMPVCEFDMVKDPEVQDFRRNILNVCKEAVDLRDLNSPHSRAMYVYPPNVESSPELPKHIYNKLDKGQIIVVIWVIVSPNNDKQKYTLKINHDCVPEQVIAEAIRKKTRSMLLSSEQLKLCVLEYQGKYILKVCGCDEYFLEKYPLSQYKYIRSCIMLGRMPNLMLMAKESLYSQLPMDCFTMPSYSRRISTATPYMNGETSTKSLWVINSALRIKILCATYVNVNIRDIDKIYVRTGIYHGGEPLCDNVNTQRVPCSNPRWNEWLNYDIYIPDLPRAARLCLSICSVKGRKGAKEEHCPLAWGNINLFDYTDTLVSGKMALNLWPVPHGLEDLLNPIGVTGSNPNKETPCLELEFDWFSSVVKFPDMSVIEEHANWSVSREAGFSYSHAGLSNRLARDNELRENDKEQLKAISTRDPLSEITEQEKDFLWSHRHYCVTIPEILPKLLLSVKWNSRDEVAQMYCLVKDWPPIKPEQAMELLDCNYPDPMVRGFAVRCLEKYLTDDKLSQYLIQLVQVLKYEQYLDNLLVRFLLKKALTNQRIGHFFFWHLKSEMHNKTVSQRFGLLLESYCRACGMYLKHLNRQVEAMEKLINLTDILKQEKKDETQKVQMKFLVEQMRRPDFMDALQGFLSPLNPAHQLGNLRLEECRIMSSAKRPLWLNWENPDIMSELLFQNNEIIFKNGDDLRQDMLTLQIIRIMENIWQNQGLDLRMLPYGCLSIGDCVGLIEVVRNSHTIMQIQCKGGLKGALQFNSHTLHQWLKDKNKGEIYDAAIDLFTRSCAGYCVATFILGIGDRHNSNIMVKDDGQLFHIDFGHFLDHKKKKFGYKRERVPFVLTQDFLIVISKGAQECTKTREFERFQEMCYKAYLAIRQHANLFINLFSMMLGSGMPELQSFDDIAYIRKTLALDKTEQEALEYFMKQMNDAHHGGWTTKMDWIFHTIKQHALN

`CC(C)(C)c1ccc2occ(/C=N/Nc3nc4c(c(N5CCOCC5)n3)CS(=O)(=O)CC4)c(=O)c2c1` gave an IC50 (A549; [6]) of 18.4 µM, an IC50 [1, 7] of 17.9 µM and an IC50 (MCF7; [8]) of 17.8 µM. For the same compound, the IC50 (HeLa; [9]) was 15.3 µM, the IC50 (HepG2; [10]) was 14.8 µM and the inhibition [2] was 44.7%. For the same compound, the inhibition [3] was 13.8%.
In the case of `O=c1c(/C=N/Nc2nc3c(c(N4CCOCC4)n2)CSCC3)coc2ccc(F)cc12`, the IC50 (A549; [6]) is reported as 6.9 µM, the IC50 [1, 7] is reported as 83.9 µM and the IC50 (MCF7; [8]) is reported as 11.3 µM. For the same compound, the IC50 (HeLa; [9]) was 0.38 µM, the IC50 (HepG2; [10]) was 0.28 µM and the IC50 [4] was “Not Active”.
`CCc1ccc2occ(/C=N/Nc3nc4c(c(N5CCOCC5)n3)CS(=O)(=O)CC4)c(=O)c2c1` showed an IC50 (A549; [6]) of 26.4 µM, an IC50 [1, 7] of 30.2 µM and an IC50 (MCF7; [8]) of 28.9 µM. For the same compound, the IC50 (HeLa; [9]) was 20.2 µM and the IC50 (HepG2; [10]) was 25.9 µM.
In the case of `O=c1c(/C=N/Nc2nc3c(c(N4CCOCC4)n2)CSCC3)coc2ccc(O)cc12`, the IC50 (A549; [6]) is reported as over 100 µM, the IC50 [1, 7] is reported as over 100 µM and the IC50 (MCF7; mcf7) is reported as “Not Active”. The IC50 (HeLa; hela) was “Not Active” and the IC50 (HepG2; hepg2) was “Not Active”.
In the case of `O=c1c(/C=N/Nc2nc3c(c(N4CCOCC4)n2)CSCC3)coc2ccc(Cl)cc12`, the IC50 (A549; [6]) is reported as over 100 µM, the IC50 [1, 7] is reported as 32.2 µM and the IC50 (MCF7; mcf7) is reported as “Not Active”. The IC50 (HeLa; [9]) was 13.4 µM and the IC50 (HepG2; hepg2) was “Not Active”.
Compound `CC(C)c1ccc2occ(/C=N/Nc3nc4c(c(N5CCOCC5)n3)CSCC4)c(=O)c2c1` has an IC50 (A549; [6]) of 9.5 µM, an IC50 [1, 7] of 17.3 µM and an IC50 (MCF7; [8]) of 13.1 µM. For the same compound, the IC50 (HeLa; [9]) was 15.5 µM, the IC50 (HepG2; [10]) was 9.95 µM and the IC50 [4] was “Not Active”.
`CC(C)c1ccc2occ(/C=N/Nc3nc4c(c(N5CCOCC5)n3)CS(=O)(=O)CC4)c(=O)c2c1` gave an IC50 (A549; [6]) of 25.7 µM, an IC50 [1, 7] of 34.9 µM and an IC50 (MCF7; [8]) of 27.3 µM. It also gave an IC50 (HeLa; [9]) of 26.5 µM and an IC50 (HepG2; [10]) of 27.9 µM.
Compound `CS(=O)(=O)N1CCN(Cc2cc3nc(-c4cccc5[nH]ncc45)nc(N4CCOCC4)c3s2)CC1` [PICTILISIB] has an IC50 (A549; [6]) of 6.99 µM, an IC50 [1, 7] of 0.2 µM and an IC50 (MCF7; [8]) of 0.07 µM.
With `O=C(O)c1ccc2occ(/C=N/Nc3nc4c(c(N5CCOCC5)n3)CS(=O)(=O)CC4)c(=O)c2c1` the IC50 (A549; a549) was “Not Active”, the IC50 ([1]; pc-3) was “Not Active” and the IC50 (MCF7; mcf7) was “Not Active”.
Compound `O=c1c(/C=N/Nc2nc3c(c(N4CCOCC4)n2)CSCC3)coc2ccc(Br)cc12` has an IC50 (A549; [6]) of over 100 µM, an IC50 [1, 7] of over 100 µM and an IC50 (MCF7; [8]) of over 100 µM. It also gave an IC50 (HeLa; [9]) of over 100 µM and an IC50 (HepG2; [10]) of over 100 µM.
With `O=c1c(/C=N/Nc2nc3c(c(N4CCOCC4)n2)CS(=O)(=O)CC3)coc2ccc(Cl)cc12` the IC50 (A549; [6]) was 17.9 µM, the IC50 [1, 7] was 46.9 µM and the IC50 (MCF7; [8]) was 23.5 µM. It also gave an IC50 (HeLa; [9]) of 30.4 µM and an IC50 (HepG2; [10]) of 38.1 µM.
In the case of `O=c1c(/C=N/Nc2nc3c(c(N4CCOCC4)n2)CSCC3)coc2ccc([N+](=O)[O-])cc12`, the IC50 (A549; [6]) is reported as 19.8 µM, the IC50 [1, 7] is reported as 34.9 µM and the IC50 (MCF7; [8]) is reported as 21.4 µM. It also gave an IC50 (HeLa; [9]) of 11.5 µM, an IC50 (HepG2; [10]) of 12.7 µM and an inhibition [2] of 66.4%. The inhibition [3] was 16.7%.
For `Cc1ccc2occ(/C=N/Nc3nc4c(c(N5CCOCC5)n3)CS(=O)(=O)CC4)c(=O)c2c1`, the IC50 (A549; [6]) was 20.8 µM, the IC50 [1, 7] was 38 µM and the IC50 (MCF7; [8]) was 22.1 µM. The IC50 (HeLa; [9]) was 19.2 µM and the IC50 (HepG2; [10]) was 23.4 µM.
In the case of `O=C(O)c1ccc2occ(/C=N/Nc3nc4c(c(N5CCOCC5)n3)CSCC4)c(=O)c2c1`, the IC50 (A549; [6]) is reported as 10.5 µM, the IC50 [1, 7] is reported as 14.3 µM and the IC50 (MCF7; [8]) is reported as 11.8 µM. For the same compound, the IC50 (HeLa; [9]) was 10.3 µM, the IC50 (HepG2; [10]) was 8.77 µM and the IC50 ([4]; read-out: IC50) was 1.1 µM. It also gave an IC50 ([5]; read-out: IC50) of 0.92 µM.
With `O=c1c(/C=N/Nc2nc3c(c(N4CCOCC4)n2)CS(=O)(=O)CC3)coc2ccc(O)cc12` the IC50 (A549; a549) was “Not Active”, the IC50 ([1]; pc-3) was “Not Active” and the IC50 (MCF7; mcf7) was “Not Active”.
In the case of `CCc1ccc2occ(/C=N/Nc3nc4c(c(N5CCOCC5)n3)CSCC4)c(=O)c2c1`, the IC50 (A549; [6]) is reported as 21.1 µM, the IC50 [1, 7] is reported as 23.8 µM and the IC50 (MCF7; [8]) is reported as 11.2 µM. The IC50 (HeLa; [9]) was 10.1 µM, the IC50 (HepG2; [10]) was 13.9 µM and the IC50 [4] was “Not Active”.
With `O=c1c(/C=N/Nc2nc3c(c(N4CCOCC4)n2)CS(=O)(=O)CC3)coc2ccc([N+](=O)[O-])cc12` the IC50 (A549; a549) was “Not Active”, the IC50 ([1]; pc-3) was “Not Active” and the IC50 (MCF7; mcf7) was “Not Active”.
In the case of `Cc1ccc2occ(/C=N/Nc3nc4c(c(N5CCOCC5)n3)CSCC4)c(=O)c2c1`, the IC50 (A549; [6]) is reported as 42.5 µM, the IC50 [1, 7] is reported as over 100 µM and the IC50 (MCF7; [8]) is reported as 36.6 µM. For the same compound, the IC50 (HeLa; [9]) was 15.9 µM and the IC50 (HepG2; hepg2) was “Not Active”.
For `COc1cc(/C=N/Nc2nc3c(c(N4CCOCC4)n2)CSCC3)cc(OC)c1O`, the IC50 (A549; [6]) was 7.43 µM, the IC50 (MCF7; [8]) was 5.84 µM and the IC50 [5] was “Not Active”.
For `O=c1c(/C=N/Nc2nc3c(c(N4CCOCC4)n2)CS(=O)(=O)CC3)coc2ccc(Br)cc12`, the IC50 (A549; [6]) was 50.5 µM, the IC50 [1, 7] was 65.1 µM and the IC50 (MCF7; [8]) was 60.3 µM. The IC50 (HeLa; hela) was “Not Active” and the IC50 (HepG2; hepg2) was “Not Active”.
Work on `CC(C)(C)c1ccc2occ(/C=N/Nc3nc4c(c(N5CCOCC5)n3)CSCC4)c(=O)c2c1` yielded an IC50 (A549; [6]) of 11.5 µM, an IC50 [1, 7] of 15.3 µM and an IC50 (MCF7; [8]) of 3.85 µM. For the same compound, the IC50 (HeLa; [9]) was 0.17 µM, the IC50 (HepG2; [10]) was 1.84 µM and the inhibition [2] was 36.4%. For the same compound, the inhibition [3] was 24%.
With `O=c1c(/C=N/Nc2nc3c(c(N4CCOCC4)n2)CS(=O)(=O)CC3)coc2ccc(F)cc12` the IC50 (A549; a549) was “Not Active”, the IC50 ([1]; pc-3) was “Not Active” and the IC50 (MCF7; mcf7) was “Not Active”.
